{"source": "patent US20250369050A1", "about": "“METHODS AND COMPOSITIONS RELATED TO ASSESSMENT AND TREATMENT OF KIDNEY DISEASE” (Board of Regents, The University of Texas System, priority 2022, published 2025)", "key": {"[1]": {"system": "kidney cells", "assay": "Protection of kidney cells from cell death by MTAP inhibitor (FIG. 18)", "type": "cell-based", "conditions": "cell stress due to reduction of MDM2"}, "[2]": {"system": "mice undergoing ischemia-reperfusion injury", "assay": "Ischemia-reperfusion injury in mice, BUN (FIG. 25)", "type": "in vivo, mouse", "conditions": "inhibitor given once before ischemia 30 min and reperfusion, BUN 24 h later", "protocol": "FIG. 25. MTAP inhibitor DADMe-ImmA given once before ischemia-reperfusion injury prevents an increase in BUN levels in mice undergoing ischemia-reperfusion injury. Mice underwent ischemia for 30m followed by reperfusion and 24 h later, the BUN was measured."}, "[3]": {"system": "db/db mice", "assay": "MTAP inhibitor for 8 weeks in db/db mice (FIG. 32, 33)", "type": "in vivo, mouse", "protocol": "FIG. 32. […] Control (db/m) and diabetic (db/db) mice were treated from week 12 to week 20 with MTAP inhibitor (10 mg/kg/day in drinking water) and 24 h urine samples were collected and measured for albumin/creatinine ratio (A), hydrogen peroxide/creatinine ratio (B) and collagen/creatinine ratio (C). (*p<0.05, ANOVA, n=5-6/group)\nFIG. 33. […] Control (db/m) and diabetic (db/db) mice were treated from week 12 to week 20 with MTAP inhibitor (10 mg/kg/day in drinking water) and kidney weight was standardized per tibia length (A). Kidney cortex was immunoblotted for fibronectin and laminin y1 and standardized for b-actin with quantitative data shown in (B) and (C), respectively. (*p<0.05, ANOVA, n=5-6/group)"}, "[4]": {"system": "mice", "assay": "Adenine administration to mice (FIG. 30, 31)", "type": "in vivo, mouse", "excerpt": "FIG. 30. Adenine administration to mice increases serum sTNFR1 (A), plasma KIM-1 (B). (n=12 in control group and n=7 in adenine treated group, *p<0.05, **p<0.01, ***p<0.001, […] vs control by t-test or One-way ANOVA).\nFIG. 31. Adenine administration to mice increases kidney (A) and heart (B) hypertrophy and mTOR mediated matrix molecules in the kidney (C). Quantitative assessment of phosphor-S6 kinase as a measure of mTOR (D), fibronectin/-b-actin (E) and collagen type 1 alpha 2 chain (F). (n=12 in control group and n=7 in adenine treated group, *p<0.05, **p<0.01, ***p<0.001, […] vs control by t-test or One-way ANOVA).\nPatients with type 1 diabetes (n=8) or type 2 diabetes (n=8) have an increase in tissue levels of adenine in their kidney biopsies as compared to healthy controls (n=5)(FIG. 29). Adenine administration is causative of the major manifestations of diabetic kidney disease in a mouse model, including serum soluble tumor necrosis factor receptor-1 (sTNFR1) and plasma kidney injury […] (KIM1) (FIG. 30). Adenine also stimulates kidney hypertrophy and heart hypertrophy (FIG. 31) as well as kidney phosphor-S6-kinase (marker of mTOR activity), kidney fibronectin and kidney collagen type 1 alpha-2 chain (FIG. 31). An inhibitor of MTAP (DADMe-ImmA 10 mg/kg/d in drinking water for 8 weeks) reduces urine ACR, urine hydrogen peroxide (urine H2O2) and urine collagen in a mouse model of diabetic kidney disease (db/db mouse) (FIG. 32)."}, "[5]": {"system": "human proximal tubular cells (HK2)", "assay": "ATP generation by Seahorse analysis in HK2 cells exposed to adenine", "type": "cell-based"}, "[6]": {"system": "kidney cells", "assay": "Adenine toxicity to kidney cells (FIG. 13)", "type": "cell-based"}, "[7]": {"system": "mTOR pathway", "assay": "Adenine-induced stimulation of mTOR pathway (P-S6K) in tubular cells (FIG. 28)", "type": "cell-based", "conditions": "adenine challenge", "excerpt": "The downstream pathways stimulated by adenine are PI3Kinase, AKT and mTOR (FIG. 28). […] Once mTOR is inhibited the downstream effect of adenine to stimulate matrix accumulation was reduced (FIG. 19)."}, "[8]": {"system": "kidney tubular cells", "assay": "Adenine stimulation of extracellular matrix molecules in kidney tubular cells", "type": "cell-based"}, "[9]": {"system": "mice challenged with adenine", "assay": "In vivo IRsiRNA #1 with adenine challenge in drinking water in mice (FIG. 35)", "design": "species or system mouse", "protocol": "(§1) FIG. 35. In vivo administration of IRsiRNA #1 reduced IR specifically in mouse kidney and prevented adenine-induced rise in BUN levels in mice. Mice were administered vehicle or kidney targeting IRsiRNA #1 prior to being challenged with adenine (5 mM) in the drinking water for 4 days.\nas §1, with “In FIG.” for “FIG.”, “35, in” for “35. In”, “Blood Urea Nitrogen (BUN)” for “BUN”"}, "[10]": {"system": "human insulin receptor mRNA", "assay": "Insulin receptor mRNA knockdown in HK2 cells by qRTPCR (FIG. 36)", "type": "cell-based", "conditions": "96 h after transfection, vs control siRNA", "protocol": "FIG. 36. siRNA to Human and Pig Insulin receptor is effective to reduce mRNA for Insulin receptor in human kidney cells. Human kidney (HK2) proximal tubular cells were transfected with siRNA (4 ul from 10 um stock) using RNAiMax (6 ul in optiMEM) and plated on 6 well plates. After 48 h, the media was replaced with fresh media. After 96 h of the transfection, total RNA was isolated and subjected to cDNA synthesis followed by qRTPCR.\nIn this non-limiting example, siRNA targeting human/pig insulin receptor mRNA can reduce human insulin receptor in human tubular cells. (FIG. 36). In FIG. 36, siRNA to human and pig insulin receptor is effective to reduce mRNA for insulin receptor in human kidney cells. Human kidney (HK2) proximal tubular cells were transfected with siRNA (4 ul from 10 um stock) using RNAiMax (6 ul in optiMEM) and plated on 6 well plates. After 48 h, the media was replaced with fresh media. After 96 h of the transfection, total RNA was isolated and subjected to cDNA synthesis followed by qRTPCR."}, "[11]": {"system": "patients with hyperfiltration", "assay": "Urine adenine in type 1 diabetic patients with hyperfiltration treated with empagliflozin (FIG. 23)", "type": "in vivo, human", "conditions": "high risk patients with hyperfiltration, after 8 weeks of treatment", "excerpt": "FIG. 23. Empagliflozin reduces urine adenine levels in patients with hyperfiltration. Hyperfilterers (red lines and dots) and normofilterers (blue lines and dots). Overall effect of treatment (Visit 3 and 4 vs. Visit 12 and 13) on least square mean changes to log-transformed adenine levels is reported. Significant p-values stated. *p<0.05, **p<0.01."}, "[12]": {"system": "db/db mice", "protocol": "FIG. 26. […] NaHS administered for 4 weeks to db/db mice and db/m mice and MTAP/-b-actin and fibronectin/b-actin levels were evaluated by immunoblotting. Urine ACR was measured at end of 4-week period of NaHS administration."}, "[13]": {"system": "Kidney tubules (MCT) cells", "assay": "Adenine-induced fibronectin accumulation in MCT cells (FIG. 19)", "type": "cell-based, mouse", "protocol": "FIG. 19. Effect of Rapamycin and NaHS on Adenine. […] A. Kidney tubules (MCT) cells were pre-incubated with 10 nM of rapamycin for 30 min followed by incubation with 20 μM of adenine for 15 min. B. MCT cells were incubated with 20 μM of adenine and 250 μM NaHS for 15 min."}, "[14]": {"system": "mouse insulin receptor mRNA", "assay": "Insulin receptor mRNA knockdown in MCT cells by qRTPCR (FIG. 34)", "type": "cell-based", "conditions": "reverse transfection, 72 h", "protocol": "(§2) FIG. 34. siRNAs to insulin receptor (IR) based on sequence in mouse and rat reduces IR in mouse kidney cells. Mouse cortical tubular (MCT) cells were reverse transfected with siRNAs targeting mouse and rat insulin receptor mRNA (m/r IRsiRNA #1 and m/r IR siRNA #5) using RNAiMax (6 ul in optiMEM) and plated on 6 well plates. After 72 h of incubation, total RNA was isolated and subjected to cDNA synthesis followed by qRTPCR (n=6/group, ****p<0.0001).\nas §2, with “34 illustrates the administration of the siRNA for the insulin receptor to mice treated with adenine reduced insulin receptor in the kidney but not in liver and prevented the increase in blood urea nitrogen levels (FIG. 35). In FIG. 34,” for “34.”"}, "[15]": {"conditions": "10 mg/kg/day in drinking water, week 12 to 20, 24 h urine"}, "[16]": {"conditions": "10 mg/kg/day, 8 weeks, kidney cortex immunoblot"}, "[17]": {"conditions": "adenine administration vs control"}}, "note": "Read-outs that look alike come from different tables or passages of the source."}
{"molecule": "CSC[C@H]1CN(Cc2c[nH]c3c(N)ncnc23)C[C@@H]1O", "note": "[MT-DADMe-ImmA, Methylthio-DADMe-Immucillin]", "values": [{"measurement": "protection of kidney cells from cell death", "setting": "[1]", "result": "protects kidney cells from cell death"}, {"measurement": "BUN", "setting": "[2]", "result": "no significant increase in BUN"}, {"measurement": "urine ACR", "setting": "[3]; [15]", "result": "reduces"}, {"measurement": "urine H2O2", "setting": "[3]; [15]", "result": "reduces"}, {"measurement": "urine collagen", "setting": "[3]; [15]", "result": "reduces"}, {"measurement": "kidney fibronectin", "setting": "[3]; [16]", "result": "reduced"}, {"measurement": "kidney laminin yI", "setting": "[3]; [16]", "result": "reduced"}, {"measurement": "kidney hypertrophy", "setting": "[3]; 10 mg/kg/day, 8 weeks, kidney weight per tibia length", "result": "reduced"}]}
{"molecule": "Nc1ncnc2nc[nH]c12", "note": "[Adenine]", "values": [{"measurement": "heart hypertrophy", "setting": "[4]; adenine administration", "result": "stimulates"}, {"measurement": "kidney collagen type 1 alpha-2 chain", "setting": "[4]; adenine administration", "result": "stimulates"}, {"measurement": "kidney fibronectin", "setting": "[4]; adenine administration", "result": "stimulates"}, {"measurement": "kidney hypertrophy", "setting": "[4]; adenine administration", "result": "stimulates"}, {"measurement": "kidney phosphor-S6-kinase (marker of mTOR activity)", "setting": "[4]; adenine administration", "result": "stimulates"}, {"measurement": "plasma KIM-1", "setting": "[4]; [17]", "result": "increases"}, {"measurement": "serum sTNFR1", "setting": "[4]; [17]", "result": "increases"}, {"measurement": "ATP generation", "setting": "[5]; dose dependence", "result": "dose-dependently reduced ATP generation"}, {"measurement": "ATP generation", "setting": "[5]; high doses of adenine", "result": "complete reduction of ATP generation"}, {"measurement": "toxicity to kidney cells", "setting": "[6]", "result": "toxic to kidney cells"}, {"measurement": "S6K phosphorylation (P-S6K)", "setting": "[7]", "result": "increased within minutes of adenine challenge"}, {"measurement": "Type I collagen", "setting": "[8]", "result": "rapidly stimulates Type I collagen"}, {"measurement": "fibronectin production", "setting": "[8]", "result": "stimulates"}, {"measurement": "elevation in BUN levels vs non-adenine group", "setting": "[9]; vehicle and adenine 5 mM in drinking water for 4 days", "result": 3, "unit": "fold"}]}
{"molecule": "H/P siRNA #2: siRNA targeting human and pig IR mRNA, SEQ ID NO. 17 (+) and SEQ ID NO. 18 (−) (sense CAGUACGUCAUUCACAACAACAAGU; antisense ACUUGUUGUUGUGAAUGACGUACUGGU; listed as RNA, chemistry not fully specified)", "values": [{"measurement": "human insulin receptor mRNA", "setting": "[10]", "result": "significant reduction"}]}
{"molecule": "OC[C@H]1O[C@@H](c2ccc(Cl)c(Cc3ccc(O[C@H]4CCOC4)cc3)c2)[C@H](O)[C@@H](O)[C@@H]1O", "note": "[Empagliflozin]", "values": [{"measurement": "urine adenine/creatinine levels", "setting": "[11]", "result": "reduces urine adenine/creatinine levels"}]}
{"molecule": "[Na+].[SH-]", "note": "[NaHS, sodium hydrogen sulfide]", "values": [{"measurement": "MTAP/b-actin by immunoblotting", "setting": "[12]; NaHS 4 weeks, kidney", "result": "significant reduction"}, {"measurement": "fibronectin/b-actin by immunoblotting", "setting": "[12]; NaHS 4 weeks, kidney", "result": "significant reduction"}, {"measurement": "urine ACR", "setting": "[12]; end of 4-week NaHS administration", "result": "significant reduction"}, {"measurement": "adenine-induced fibronectin production", "setting": "[13]; MCT cells, 20 μM adenine and 250 μM NaHS for 15 min", "result": "inhibit adenine-induced fibronectin production"}, {"measurement": "adenine-induced disease causing pathways (mTOR)", "setting": "[13]; kidney cells, NaHS", "result": "protects against"}, {"measurement": "healing pathways (AMPK)", "setting": "[13]; kidney cells, NaHS", "result": "improving healing pathways (AMPK)"}]}
{"molecule": "m/r IRsiRNA #1: siRNA targeting mouse/rat IR mRNA, SEQ ID NO. 1 (+) and SEQ ID NO. 2 (−) (sense GGCUCUGUCCGCAUCGAGAAGAAUA; antisense UAUUCUUCUCGAUGCGGACAGAGCCCC; listed as RNA, chemistry not fully specified)", "values": [{"measurement": "mouse insulin receptor at mRNA level", "setting": "[14]", "result": "significant reduction"}, {"measurement": "IR in mouse kidney cortex", "setting": "[9]; day 4, immunoblot vs control sample", "result": "reduction of IR in mouse kidney cortex"}, {"measurement": "BUN levels", "setting": "[9]; siRNA before adenine 5 mM in drinking water for 4 days", "result": "no increase in BUN levels"}]}
{"molecule": "m/r IR siRNA #5: siRNA targeting mouse/rat IR mRNA, SEQ ID NO. 9 (+) and SEQ ID NO. 10 (−) (sense AAAUCAGUUCCUCAAAUUGACCAAU; antisense AUUGGUCAAUUUGAGGAACUGAUUUUG; listed as RNA, chemistry not fully specified)", "values": [{"measurement": "mouse insulin receptor at mRNA level", "setting": "[14]", "result": "significant reduction"}]}
{"molecule": "H/P IR siRNA #4: siRNA targeting human and pig IR mRNA, SEQ ID NO. 21 (+) and SEQ ID NO. 22 (−) (sense GGAAUGACCAGAGACAUCUAUGAAA; antisense UUUCAUAGAUGUCUCUGGUCAUUCCAA; listed as RNA, chemistry not fully specified)", "values": [{"measurement": "human insulin receptor mRNA", "setting": "[10]", "result": "significant reduction"}]}
